Assay results reported in US20130116227A1, “BIARYL AMIDE DERIVATIVE OR PHARMACEUTICALLY ACCEPTABLE SALT THEREOF” (DAINIPPON SUMITOMO PHARMA CO., LTD., priority 2010, published 2013).
pIC50: −log10 of the molar value.

Target: T1, aldosterone receptor (Rattus norvegicus, UniProt P22199)
T1 construct: centrifuged at 105,000 g for 30 minutes, and then a supernatant was collected as a renal soluble fraction; from tissue; host or cells: rat kidney (adrenalectomized rat), 105,000 g supernatant (cytosol)
T1 sequence (P22199 1-981): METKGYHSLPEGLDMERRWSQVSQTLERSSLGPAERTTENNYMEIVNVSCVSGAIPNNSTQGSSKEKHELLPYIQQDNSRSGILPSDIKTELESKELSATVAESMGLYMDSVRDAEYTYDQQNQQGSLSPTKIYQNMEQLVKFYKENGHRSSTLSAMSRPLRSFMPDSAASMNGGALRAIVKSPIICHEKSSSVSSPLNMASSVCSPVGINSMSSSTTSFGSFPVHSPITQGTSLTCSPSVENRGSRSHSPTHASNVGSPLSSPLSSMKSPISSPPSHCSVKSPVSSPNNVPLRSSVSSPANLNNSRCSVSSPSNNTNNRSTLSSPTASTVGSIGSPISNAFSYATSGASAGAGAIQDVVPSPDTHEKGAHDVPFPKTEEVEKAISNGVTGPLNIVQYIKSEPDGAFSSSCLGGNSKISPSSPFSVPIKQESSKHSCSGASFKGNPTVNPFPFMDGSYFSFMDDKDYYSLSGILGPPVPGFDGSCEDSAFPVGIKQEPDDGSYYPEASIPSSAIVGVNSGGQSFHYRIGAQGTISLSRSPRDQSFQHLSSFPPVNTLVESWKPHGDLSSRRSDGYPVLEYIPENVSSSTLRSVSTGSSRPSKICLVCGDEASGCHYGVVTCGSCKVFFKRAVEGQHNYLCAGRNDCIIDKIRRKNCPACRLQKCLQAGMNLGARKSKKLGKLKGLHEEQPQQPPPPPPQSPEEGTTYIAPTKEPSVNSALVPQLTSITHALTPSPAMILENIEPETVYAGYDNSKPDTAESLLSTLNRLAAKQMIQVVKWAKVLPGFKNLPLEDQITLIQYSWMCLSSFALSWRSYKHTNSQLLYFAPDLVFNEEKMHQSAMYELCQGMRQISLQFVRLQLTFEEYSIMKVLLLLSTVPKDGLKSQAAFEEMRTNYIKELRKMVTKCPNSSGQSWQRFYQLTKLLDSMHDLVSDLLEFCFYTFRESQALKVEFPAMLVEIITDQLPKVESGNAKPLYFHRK
Assay: Binding inhibition test for aldosterone receptor ([3H]aldosterone, rat renal soluble fraction)
Settings: [3H]aldosterone 2 nM, rat renal soluble fraction, in the presence of 2 μM RU-486, 4° C. about 18 hours; read-out: MR IC50
Procedure, shortened: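 Renal soluble fraction (105,000 g supernatant, pH 7.4 Tris/sucrose/molybdate/DTT) from adrenalectomized rats, incubated with 2 nM [3H]aldosterone plus 2 μM RU-486, 4 °C, ~18 h. Bound ligand separated by dextran-coated charcoal, counted by scintillation; nonspecific binding with 2 μM aldosterone. Percent binding inhibition over 0.1–10000 nM test compound.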

Question: With COc1cc(NC(=O)c2ccc(-c3cccnc3C3CC3)c(C)c2)ccc1S(N)(=O)=O [Example 533] as the molecule, how does the pIC50 read?
Answer: 5.80

Question: How did the pIC50 turn out when COc1cc(NC(=O)c2ccc(-c3cccc4cccnc34)c(C)c2)ccc1S(N)(=O)=O [Example 537] was run?
Answer: 5.27

Question: How did the pIC50 turn out when COCc1cc(NC(=O)c2ccc(S(N)(=O)=O)c(OC)c2)ccc1-c1cccnc1C1CC1 [Example 545] was run?
Answer: > 5.00

Question: With CCOCc1cc(C(=O)Nc2ccc(S(N)(=O)=O)c(OC)c2)ccc1-c1cccnc1OCC [Example 547] as the molecule, how does the pIC50 read?
Answer: > 5.00

Question: How did the pIC50 turn out when COc1cc(C(=O)Nc2ccc(-c3ccccc3C(F)(F)F)c(Cc3nccn3C)c2)ccc1S(N)(=O)=O [Example 550] was run?
Answer: 6.21

Question: How did the pIC50 turn out when COc1cc(NC(=O)c2ccc(-c3ccccc3OC(F)(F)F)c(N)c2)ccc1S(N)(=O)=O [Example 560] was run?
Answer: 6.62

Question: How did the pIC50 turn out when CCN(CC)c1cc(C(=O)Nc2ccc(S(N)(=O)=O)c(OC)c2)ccc1-c1ccccc1OC(F)(F)F [Example 561] was run?
Answer: 7.00

Question: With COc1cc(NC(=O)c2ccc(-c3ccccc3OC(F)(F)F)c(NCc3nccn3C)c2)ccc1S(N)(=O)=O [Example 577] as the molecule, how does the pIC50 read?
Answer: > 5.00

Question: How did the pIC50 turn out when COC(=O)Nc1cc(C(=O)Nc2ccc(S(N)(=O)=O)c(OC)c2)ccc1-c1ccccc1OC(F)(F)F [Example 578] was run?
Answer: > 5.00

Question: How did the pIC50 turn out when CCOC(=O)Nc1cc(C(=O)Nc2ccc(S(N)(=O)=O)c(OC)c2)ccc1-c1ccccc1CC [Example 581] was run?
Answer: > 5.00

Question: How did the pIC50 turn out when COc1cc(NC(=O)c2ccc(-c3ccccc3OC3CC3)c(CO)c2)ccc1S(N)(=O)=O [Example 590] was run?
Answer: > 5.00

Question: With COc1ccc(-c2ccc(C(=O)Nc3ccc(S(N)(=O)=O)c(OC)c3)cc2CNCC(F)F)c(C)c1 [Example 592] as the molecule, how does the pIC50 read?
Answer: > 5.00

Question: How did the pIC50 turn out when COc1cc(F)ccc1-c1ccc(C(=O)Nc2ccc(S(N)(=O)=O)c(OC)c2)cc1CNCC(F)F [Example 593] was run?
Answer: > 5.00

Question: With COc1cccc(NC(=O)c2ccc(-c3ccccc3)c(CN3CCCCC3)c2)c1 [compound 1] as the molecule, how does the pIC50 read?
Answer: < 5.00

Question: NS(=O)(=O)c1cccc(NC(=O)c2ccc(-c3ccccc3)c(CN3CCCCC3)c2)c1 [compound 2] was tested. Which pIC50 did it give?
Answer: < 5.00

Same assay, conditions: rat renal soluble fraction, [3H] aldosterone 2 nM, in the presence of 2 μM RU-486

Question: For COc1cccc(NC(=O)c2ccc(-c3ccccc3)c(CN3CCCCC3)c2)c1 [compound 1, reference compound], which “binding affinities for aldosterone receptor” value is on record?
Answer: very few binding affinities

Question: NS(=O)(=O)c1cccc(NC(=O)c2ccc(-c3ccccc3)c(CN3CCCCC3)c2)c1 [compound 2, reference compound] was tested. Which “binding affinities for aldosterone receptor” value did it give?
Answer: very few binding affinities

Same assay, conditions: read-out: Inhibition rates (%) in 100 μM

Question: For COc1cccc(NC(=O)c2ccc(-c3ccccc3)c(CN3CCCCC3)c2)c1 [compound 1], which inhibition at 100 µM is on record?
Answer: 7%

Question: Which inhibition at 100 µM does the source give for NS(=O)(=O)c1cccc(NC(=O)c2ccc(-c3ccccc3)c(CN3CCCCC3)c2)c1 [compound 2] here?
Answer: 11%

Tested on: normal rat
Assay: Antagonism (in vivo antagonist activity) against reduction of Na/K ratios in DOCA induced urine of normal rat
Settings: oral administration 30 minutes before DOCA 0.3 mg/kg s.c., urine collected for 8 hours
Protocol: Antagonism (In Vivo Antagonist Activity) Against Reduction of Na/K Ratios in Deoxycorticosterone Acetate (DOCA) Induced Urine of Normal Rat
A rat was encaged in a metabolism cage and was collected urine for 8 hours. When a test article was orally administered, it was administered in 5 ml/kg of dosage solution amounts using 0.5% methylcellulose as a solvent. DOCA was dissolved in corn oil in 0.3 mg/ml, and was subcutaneously administered in 1 ml/kg (0.3 mg/kg). Administration timing for a test article was 30 minutes before DOCA administration. 20 ml/kg of Solution amounts of saline was orally administered when administering DOCA in order to stabilize urine amounts and to secure enough amounts. Collected urine was analyzed its amounts, and then electrolyte (sodium: Na^+ and potassium: K^+) concentrations in urine were analyzed by an automatic biochemical analyzer (manufactured by JEOL Ltd., JCA-BM1650) to calculate ratios of Na^+ and K^+.

Question: Which “suppression of reduction of Na/K ratios in DOCA-induced urine” value does the source give for COC(=O)[C@@H]1CC2=CC(=O)CC[C@]2(C)[C@@]23O[C@@H]2C[C@@]2(C)[C@@H](CC[C@@]24CCC(=O)O4)[C@H]13 [eplerenone] here?
Answer: suppressed reduction of Na/K ratios in DOCA-induced urine in a dose-dependent manner
